Structures can show the parent of a compound that is named as a salt.

In the first test the test system is hPSC-SCs.
Details: not given
The molecule `COc1ccc2[nH]c3c(c2c1)CCN=C3C` [Methoxy-6-harmalan] came in with a z.score.t of −0.1216.
Still for that read-out and setting: next, `Cc1cc(C(C)(C)CC(C)(C)C)ccc1OCCOCC[N+](C)(C)Cc1ccccc1.[Cl-]` [Methyl benzethonium chloride]: −1.169; `CC[C@@H](CO)NC(=O)[C@@H]1C=C2c3cccc4[nH]cc(c34)C[C@H]2N(C)C1` [Methylergometrine maleate]: 1.669; `C[C@H]1NC(=O)NC1=O` [Methylhydantoin-5-(D)]: −0.9395.
The molecule `C[C@@H]1NC(=O)NC1=O` [Methylhydantoin-5-(L)] returned a z.score.t of 1.101.
In turn, `C[C@H]1C(=O)O[C@@H]2CCN3CC=C(COC(=O)[C@](C)(O)[C@]1(C)O)[C@H]23` [Monocrotaline] had a z.score.t of 0.5046.
Same read-out and setting: the value for `Cc1ccsc1/C=C/C1=NCCCN1C` [Morantel tartrate] was −0.06439.
On the same count and under the same terms, the value for `c1cncc(C2=NCCC2)c1` [Myosmine] was 0.9865; that for `Oc1ccc2c3c1O[C@H]1[C@@H](O)CC[C@@]4(O)[C@@H](C2)N(CC2CCC2)CC[C@]314` [Nalbuphine hydrochloride] was 0.1298; that for `C[C@]12CC[C@H]3[C@@H](CCC4=CC(=O)CC[C@@H]43)[C@@H]1CC[C@@H]2O` [Nandrolone] was 1.306.
The same measure, in the same setting: next, `C=C1[C@H]2C[C@@]3([C@@H]1O)[C@@H](C[C@@H]2O)[C@]12[C@@H]4C[C@H]3[C@H]1N(CC)C[C@]4(C)CC[C@@H]2O` [Napelline]: 1.178.

Staying with this test, now noted: HTS viability of hPSC-SCs in the presence of 30 mM glucose; Prestwick library; Table S4.
Consider `CSc1ccc2c(c1)C(N1CCN(C)CC1)Cc1ccccc1S2.O=C(O)/C=C\C(=O)O` (stereo not shown) [Methiothepin maleate], for which the z.score.t is −0.8821.
On the same count and under the same terms, next, `COc1ccccc1OCC(O)COC(N)=O` (stereo not shown) [Methocarbamol]: −1.392; `CN(Cc1cnc2nc(N)nc(N)c2n1)c1ccc(C(=O)N[C@@H](CCC(=O)O)C(=O)O)cc1` [Methotrexate]: 0.8875.
Same read-out and setting: the value for `COc1ccc2c(c1)N(C[C@H](C)CN(C)C)c1ccccc1S2.O=C(O)/C=C\C(=O)O` [Methotrimeprazine maleat salt] was −1.008.
Still for that read-out and setting: next, `COc1ccc(OC)c(C(O)C(C)N)c1` (stereo not shown) [Methoxamine hydrochloride]: 1.064; `COc1c2occc2cc2ccc(=O)oc12` [Methoxy-8-psoralen]: 1.124; `C[N+]1(C)[C@@H]2CC[C@H]1C[C@@H](OC(=O)C(CO)c1ccccc1)C2` (stereo partly shown) [Methylatropine nitrate]: 1.238.
Regarding `C[C@](N)(Cc1ccc(O)c(O)c1)C(=O)O` [Methyldopa (L, −)], the z.score.t is on record as 0.006455.
Same read-out and setting: the value for `CCOC(=O)[C@@](C)(N)Cc1ccc(O)c(O)c1` [Methyldopate hydrochloride] was −0.8464; that for `C[C@H]1C[C@@H]2[C@H]([C@@H](O)C[C@@]3(C)[C@H]2CC[C@]3(O)C(=O)CO)[C@@]2(C)C=CC(=O)C=C12` [Methylprednisolone, 6-alpha] was 0.7665.
On the same count and under the same terms, the value for `Cc1cc2c(cc1S(N)(=O)=O)S(=O)(=O)CCC2` [Meticrane] was −0.3156.
Same read-out and setting: next, `CN1CCCC(CC2c3ccccc3Sc3ccccc32)C1` (stereo not shown) [Metixene hydrochloride]: −0.9654; `CCN(CC)CCNC(=O)c1cc(Cl)c(N)cc1OC` [Metoclopramide monohydrochloride]: 1.024.
Turning to `Cc1ccccc1N1C(=O)c2cc(S(N)(=O)=O)c(Cl)cc2NC1C` (stereo not shown) [Metolazone], the z.score.t was determined as 0.3637.
Take `CC(=O)Nc1c(I)c(C(=O)N[C@H]2C(O)O[C@H](CO)[C@@H](O)[C@@H]2O)c(I)c(N(C)C(C)=O)c1I` (stereo partly shown) [Metrizamide]: the z.score.t was determined as 1.421.
Same read-out and setting: the value for `Cc1ncc([N+](=O)[O-])n1CCO` [Metronidazole] was 1.259; that for `CC(C)(C(=O)c1cccnc1)c1cccnc1` [Metyrapone] was 1.178; that for `C[C@@]1(O)CCOC(=O)C1` [Mevalonic-D, L acid lactone] was 0.2361.
Regarding `Cc1cccc(C)c1OCC(C)N` (stereo not shown) [Mexiletine hydrochloride], the z.score.t is 0.6648.
The same measure, in the same setting: next, `CN1CCN2c3ccccc3Cc3ccccc3C2C1` (stereo not shown) [Mianserine hydrochloride]: 0.8279; `Clc1ccc(COC(Cn2ccnc2)c2ccc(Cl)cc2Cl)c(Cl)c1` (stereo not shown) [Miconazole]: −1.873; `COc1ccc(OC)c(C(O)CNC(=O)CN)c1` (stereo not shown) [Midodrine hydrochloride]: 0.5856.
On the same count and under the same terms, the value for `CC#C[C@]1(O)CC[C@H]2[C@@H]3CCC4=CC(=O)CCC4=C3[C@@H](c3ccc(N(C)C)cc3)C[C@@]21C` [Mifepristone] was −0.8392.
Still for that read-out and setting: the value for `Cc1[nH]c(=O)c(C#N)cc1-c1ccncc1` [Milrinone] was 0.3236.
For the molecule `NC(Cn1ccc(=O)c(O)c1)C(=O)O` (stereo not shown) [Mimosine], the z.score.t is given as 0.7491.
Still for that read-out and setting: next, `Cc1cc(-c2ccccc2)nnc1NCCN1CCOCC1` [Minaprine dihydrochloride]: −0.5003.
Still for that read-out and setting: next, `CN(C)c1ccc(O)c2c1C[C@H]1C[C@H]3[C@H](N(C)C)C(O)=C(C(N)=O)C(=O)[C@@]3(O)C(O)=C1C2=O` [Minocycline hydrochloride]: −1.319; `Nc1cc(N2CCCCC2)nc(N)[n+]1[O-]` [Minoxidil]: 0.2479; `O=C1c2c(O)ccc(O)c2C(=O)c2c(NCCNCCO)ccc(NCCNCCO)c21` [Mitoxantrone dihydrochloride]: −0.3936.
In the case of `O=C(NCCN1CCOCC1)c1ccc(Cl)cc1` [Moclobemide], the z.score.t came out at 0.5822.
For `CCc1c(C)[nH]c2c1C(=O)C(CN1CCOCC1)CC2` (stereo not shown) [Molindone hydrochloride], the z.score.t is recorded as −0.1759.
On the same count and under the same terms, the value for `CCOC(=O)[N-]c1cn(N2CCOCC2)n[o+]1` [Molsidomine] was 0.713; that for `C[C@@H]1C[C@H]2[C@@H]3CCC4=CC(=O)C=C[C@]4(C)[C@@]3(Cl)[C@@H](O)C[C@]2(C)[C@@]1(OC(=O)c1ccco1)C(=O)CCl` [Mometasone furoate] was 0.1979.
Same read-out and setting: the value for `CC[C@@]1([C@@H]2O[C@@H]([C@H]3O[C@@](O)(CO)[C@H](C)C[C@@H]3C)C[C@@H]2C)CC[C@H]([C@]2(C)CC[C@]3(C[C@H](O)[C@@H](C)[C@@H]([C@@H](C)[C@@H](OC)[C@H](C)C(=O)O)O3)O2)O1` [Monensin sodium salt] was −2.299.
The same measure, in the same setting: next, `Oc1ccc(OCc2ccccc2)cc1` [Monobenzone]: 0.557; `CCOC(=O)Nc1ccc2c(c1)N(C(=O)CCN1CCOCC1)c1ccccc1S2` [Moricizine hydrochloride]: 0.0827; `Cl.N=C(N=C(N)N)N1CCOCC1` [Moroxidine hydrochloride]: 1.464.
In the case of `CO[C@@]1(NC(=O)C(C(=O)O)c2ccc(O)cc2)C(=O)N2C(C(=O)O)=C(CSc3nnnn3C)CO[C@@H]21` (stereo partly shown) [Moxalactam disodium salt], the z.score.t turned out to be 0.4105.
As to `CC(=O)Oc1cc(C(C)C)c(OCCN(C)C)cc1C.Cl` [Moxisylyte hydrochoride], the z.score.t is 0.8757.
For `COc1nc(C)nc(Cl)c1N=C1NCCN1` [Moxonidine], the z.score.t was −0.133.
The same measure, in the same setting: the value for `COc1c(C)c2c(c(O)c1C/C=C(\C)CCC(=O)O)C(=O)OC2` [Mycophenolic acid] was −0.7775; that for `O=c1c(O)c(-c2cc(O)c(O)c(O)c2)oc2cc(O)cc(O)c12` [Myricetin] was 0.713.
`CNc1ncnc2c1ncn2[C@@H]1O[C@H](CO)[C@@H](O)[C@H]1O` [N6-methyladenosine]: the z.score.t was found to be 1.002.
Still for that read-out and setting: next, `CC(=O)N[C@@H](CC(C)C)C(=O)O` [N-Acetyl-L-leucine]: 0.2361; `COc1ccc2cc(CCC(C)=O)ccc2c1` [Nabumetone]: 0.5365; `NC(=O)c1ccc[n+]([C@@H]2O[C@H](COP(=O)([O-])OP(=O)(O)OC[C@H]3O[C@@H](n4cnc5c(N)ncnc54)[C@H](O)[C@@H]3O)[C@@H](O)[C@H]2O)c1` [Nadide]: 0.453.
Same read-out and setting: the value for `CC1CCc2c(N3CCC(O)CC3)c(F)cc3c(=O)c(C(=O)O)cn1c23` (stereo not shown) [Nadifloxacin] was −0.9598; that for `CC(C)(C)NCC(O)COc1cccc2c1CC(O)C(O)C2` (stereo not shown) [Nadolol] was 0.7349.
The same measure, in the same setting: the value for `CCOc1ccc2ccccc2c1C(=O)N[C@@H]1C(=O)N2[C@@H]1SC(C)(C)[C@@H]2C(=O)O` [Nafcillin sodium salt monohydrate] was 1.323.
Regarding `CCN(CC)CCOC(=O)C(Cc1cccc2ccccc12)CC1CCCO1` (stereo not shown) [Nafronyl oxalate], the z.score.t is given as 2.094.
On the same count and under the same terms, next, `CN(C/C=C/c1ccccc1)Cc1cccc2ccccc12` [Naftifine hydrochloride]: −1.168; `COc1ccccc1N1CCN(CC(O)COc2cccc3ccccc23)CC1` (stereo not shown) [Naftopidil dihydrochloride]: −0.9264; `C=CCN1CC[C@]23c4c5ccc(O)c4O[C@H]2C(=O)CC[C@@]3(O)[C@H]1C5` [Naloxone hydrochloride]: 0.84.
Still for that read-out and setting: next, `O=C1CC[C@@]2(O)[C@H]3Cc4ccc(O)c5c4[C@@]2(CCN3CC2CC2)[C@H]1O5` [Naltrexone hydrochloride dihydrate]: 0.754; `c1ccc2c(CC3=NCCN3)cccc2c1` [Naphazoline hydrochloride]: 0.7665; `COc1ccc2cc([C@H](C)C(=O)O)ccc2c1` [Naproxen]: 1.745.
On to `O=C1C[C@@H](c2ccc(O)cc2)Oc2cc(O)cc(O)c21` [Naringenine], for which the z.score.t is given as 1.539.
On the same count and under the same terms, next, `C[C@@H]1O[C@@H](O[C@H]2[C@H](Oc3cc(O)c4c(c3)O[C@H](c3ccc(O)cc3)CC4=O)O[C@H](CO)[C@@H](O)[C@@H]2O)[C@H](O)[C@H](O)[C@H]1O` [Naringin hydrate]: 1.659; `CN1CCOC(c2ccccc2)c2ccccc2C1` (stereo not shown) [Nefopam hydrochloride]: −0.3733.

For the origin of these results see patent publication US20260053861A1, “CELL COMPOSITIONS AND METHODS OF USING THE SAME” (THE REGENTS OF THE UNIVERSITY OF CALIFORNIA, priority 2022, published 2026).
